Test results as given in ChEMBL document CHEMBL1147435, “Synthesis and antibiotic activity of the tricyclic furo[3,2-c] isochromen-2-trione unit of the pyranonaphthoquinones” (2004).
In brackets after ≈: the same amount, converted by molar mass.

Key:
Assay type in all cases: functional
[1] = tested on: Bacillus subtilis; assay: Minimum inhibitory concentration of compound against Bacillus subtilis
[2] = tested on: Bacillus subtilis; assay: Minimum bactericidal concentration of compound against Bacillus subtilis
[3] = tested on: Staphylococcus aureus; assay: Minimum inhibitory concentration of compound against Staphylococcus aureus
[4] = tested on: Staphylococcus aureus; assay: Minimum bactericidal concentration of compound against Staphylococcus aureus

Compound | MIC [1] | MBC [2] | MIC [3] | MBC [4]
COC1=CC(=O)C2=C(COC3CC(=O)OC23)C1=O (stereo not drawn) | 32 µg/mL (≈ 128 µM) | 128 µg/mL (≈ 512 µM) | 64 µg/mL (≈ 256 µM) | > 128 µg/mL
COc1ccc2c(c1OC)COC1CC(=O)OC21 (stereo not drawn) | 128 µg/mL (≈ 511 µM) | > 128 µg/mL | 128 µg/mL (≈ 511 µM) | > 128 µg/mL
